Results from patent US7250397B2, “Antiarrhythmic peptides” (Zealand Pharma A/S, priority 2000, dated 2007).
[ ]: non-standard residue; d: D form. The star is where a group is joined. Hyp = O=C(O)[C@@H]1C[C@@H](O)CN1; dHyp = O=C(O)[C@H]1C[C@H](O)CN1; T4C = not defined here; Acm = CC(=O)NC*; Sar = CNCC(=O)O

Experiments:
[1] = tested on: calcium-induced arrythmias; experiment: Calcium-induced arrhythmia model in mice; type: in vivo; details: maximal effect; i.v.; time until 2nd degree AV-block during CaCl2 infusion relative to vehicle treated mice
Protocol: The antiarrhythmic effects of compounds of this invention were tested in an in vivo model of calcium-induced arrythmias according to the model of Lynch et al.^[37]. […]. Commercial solutions of hypnorm and midazolam were diluted 1:1 in distilled water and one part diluted Hypnorm® is mixed with one part diluted midazolam.
The anaesthesia was induced by s.c. administration in a dose of 0.05-0.075 μl/10 gram mouse. An i.v cannula was inserted into the tail vein. The lead II ECG signal was recorded continuously by positioning of a stainless steel ECG electrodes on the right forelimb and on the left hind limb. The ground electrode was placed on the right hind limb. The signal was amplified (x 5.000-10.000) and filtered (0.1-150 Hz) via a Hugo Sachs Electronic model 689 ECG module. The analogue signal was digitised via a 12 bit data acquisition board (Data Translation model DT321) and sampled at 1000 Hz using the Notocord HEM 3.1 software for Windows NT. After a 10-min equilibration period, the test sample of drug was injected into the tail vein. Mice pre-treated with vehicle were tested as a measure of the control level in untreated animals. The injection volume was 100 μl in all experiments. Infusion of CaCl2 (30 mg/ml, 0.1 ml/min≈100 mg/kg/min (calciumchlorid-2-hydrat, Riedel-de Häen, Germany)) was started 3 min after i.v. administration of drug or vehicle. The time lag to onset of 2nd degree AV-block was determined as the time from the start of CaCl2 infusion until the first arrhythmic event occured. An event of 2nd degree AV-block was defined as intermittent failure of the AV conduction characterised by a P-wave without the concomitant QRS complex.
Responses were expressed relative to the time until 2nd degree AV-block occurred in vehicle treated mice.

[2] = tested on: phospho-inositol turnover in neonatal rat cardiomyocytes; experiment: Phosphoinositol turnover in rat primary cardiomyocytes; type: cell-based; details: for EC50: Rattus norvegicus, Cardiomyocyte
Protocol: Neonatal Wistar rats (1-2 days old) are used. Hank's calcium- and magnesium-free balanced salt solution, buffered with 10 mM HEPES is used for washing during cell separation procedures. The hearts are excised, the ventricles isolated and the tissue cut into small pieces. The myocardial cells are isolated by stepwise enzymatic degradation with collagenase 0.05%, as described by^[35]. After repeated rounds of centrifugation and washing, the precipitated cells are resuspended in culture medium M199 with Earle's salt, 10% NCS, penicillin (75 U/mL), and streptomycin (75 U/mL) and pre-plated in a Petri dish for 90 minutes. The non-adherent cells are collected in the culture medium and plated in multidishes at 2.5*10^5 cells/well. The cultures are kept in a water-saturated CO2-incubator at 37° C. The cardiomyocyte cultures are used for analyses after 6-7 days.
Cardiomyocyte cultures are incubated for 48 hours in culture medium containing […] myo-[2-^3H]inositol to label the inositol phospholipids. On the day of analysis the medium is replaced by a buffer solution containing lithium and incubated at 37° C., as described by Meier et al.^[36]. After at least five minutes this buffer is replaced by the same volume of buffer containing test compound and incubated for exactly 20 minutes. The reaction is stopped by rapid replacement of the buffer by ice cold 4% v/v perchloric acid (PCA) and incubation for at least 20 minutes at 0° C. The PCA-extract is neutralised and the [^3H]inositol phosphates are separated by anion-exchange chromatography using Amprep™ columns containing 100 mg SAX Quaternary amine. The [^3H]inositol mono-phosphates are eluted and radioactivity in the fraction measured by liquid scintillation counting.
Before adding test substances to the cultures, the cells are depleted of glucose and oxygen by incubating them in a N2-atmosphere in glucose-free lithium-buffer for 10 minutes at 37° C. Control cells are incubated likewise only at normal atmospheric conditions and in a buffer containing glucose.

CHO cells = experiment: In situ binding of [125I]AAP10 on intact CHO cells; details: overnight at 4° C.
Protocol: CHO cells are seeded in 24-multi well dishes in a density of 7,900 cells/cm^2 (˜15,000 cells/well) and grown for 3 Days In Vitro (DIV) in 1 ml/well of F-12K Nutrient Mixture supplemented with […] (FCS) and 1000 units penicillin/1000 μg streptomycin (pen/strep) in an atmosphere of 5% CO2 and 100% humidity at 37° C. The cell density has at that time increased to 295,000 cells/cm^2 (152 pgprot/cell˜85 μgprot/well).
On the day of analysis cells are removed from the incubator and each well is washed twice with, depending on the experiment, either 2 ml pre-warmed (37° C.) or ice-cold (0° C.) D-PBS to remove serum. It is important to keep the period to a minimum during which cells are left without physiological solutions to avoid that they dry out during washing procedures. The cold washed cells are used directly for binding assays while the warm washed cells are used for experiments with glucose and oxygen deprivation.
Cells are incubated for 10 min in an N2-atmosphere in glucose free D-PBS (pH 7.2) pre-equilibrated with N2 for at least 10 min at 37° C. Control cells are incubated likewise for 10 min at 37° C., only, at normal atmospheric conditions and in D-PBS containing glucose (6 mM). […]
0.25 ml of 0.5% Triton-X-100 (v/v) is added to each well and cells left for at least 1 h to solubilize. […] The vials are counted in a γ-counter.

[3] = tested on: guinea pig papillary muscle; details: 1 μM; normoxic conditions; cited from earlier work
[4] = tested on: membranes from rabbit heart; details: read-out: value given for AAP10 by Dhein et al.; cited from earlier work

Compound: 3-(4-hydroxyphenyl)propionyl-Pro-Hyp-Gly-Ala-Gly-OH [Compound CE3, reference compound]
- In vivo activity [1]: ++ (30-50% increase in time until arrhythmia)

Compound: NC[C@H](O)c1ccc(O)c(O)c1 [Noradrenaline]
- EC50 ([2]; atmosphere of N2 and depleted of glucose): 303 nM
- EC50 ([2]; normal atmospheric and nutritional conditions): 203 nM

Compound: ASAL(mono-iodo)-Pro-Hyp-Gly-Ala-Gly-NH2 [Compound 32]
- IC50 (CHO cells): 0.5 nM
- In vivo activity [1]: +++ (>60% increase in time until arrhythmia)

Compound: Ac-D-Tyr(3,5-di-I)-D-Pro-D-Hyp-Gly-D-Ala-Gly-NH2 [Compound 24]
- IC50 (CHO cells): 65 nM

Compound: Ac-Gly-Asn-Tyr-NH2 [Compound 40]
- In vivo activity [1]: ++ (30-50% increase in time until arrhythmia)

Compound: Ac-Tyr-Pro-4Hyp-Gly-Ala-Gly-OH (Ac-YP[Hyp]GAG-OH; SMILES CC(=O)N[C@@H](Cc1ccc(O)cc1)C(=O)N1CCC[C@H]1C(=O)N1C[C@H](O)C[C@H]1C(=O)NCC(=O)N[C@@H](C)C(=O)NCC(=O)O) [Compound 1]
- In vivo activity [1]: + (15-29% increase in time until arrhythmia)

Compound: Cyclo(Tyr-Pro-4Hyp-Gly-Ala-Gly-Asn) [Compound 3]
- In vivo activity [1]: +++ (>60% increase in time until arrhythmia)

Compound: H-C(Acm)GAG[Hyp]PYC(Acm)-NH2 [Compound 16]
- In vivo activity [1]: + (15-29% increase in time until arrhythmia)

Compound: H-GAG[Hyp]PY-NH2 [Compound CE2]
- EC50 relative to the EC50 of Compound 2 ([2]; during normoxia): 200 fold
- EC50 relative to the EC50 of Compound 2 ([2]; metabolic stress induced by anoxia and glucose deprivation): 10 fold
- In vivo activity [1]: +++ (>60% increase in time until arrhythmia)
- decrease of stimulus-response-interval [3]: about 10%
- IC50 [4]: 0.2 nM

Compound: H-GAG[dHyp]AY-NH2 [Compound 9]
- In vivo activity [1]: + (15-29% increase in time until arrhythmia)

Compound: H-GAG[dHyp]PY-NH2 [Compound 5]
- In vivo activity [1]: ++ (30-50% increase in time until arrhythmia)

Compound: H-GAG[dHyp][dP]Y-NH2 [Compound 10]
- In vivo activity [1]: +++ (>60% increase in time until arrhythmia)

Compound: H-GP[Hyp]GAG-OH [Compound CE1, reference compound]
- In vivo activity [1]: ++ (30-50% increase in time until arrhythmia)

Compound: H-Gly-Ala-Gly-Asn-Tyr-NH2 (H-GAGNY-NH2) [Compound 39]
- In vivo activity [1]: +++ (>60% increase in time until arrhythmia)

Compound: H-Gly-Ala-Gly-PC-Pro-Tyr-NH2 (GAGPY; PC residue; C-terminal amide; Description of Artificial Sequence: Synthetic antiarrythmic peptide; PC between positions 3 and 4) [Compound 14]
- In vivo activity [1]: + (15-29% increase in time until arrhythmia)

Compound: H-Gly-Ala-Gly-T4C-Pro-Tyr-NH2 (H-GAG[T4C]PY-NH2; reading uncertain; also: printed as H-Gly-Ala-Gly-T4C-Pro-Tyr-NH2) [Compound 12]
- In vivo activity [1]: ++ (30-50% increase in time until arrhythmia)

Compound: H-Gly-Ala-Sar-Hyp-Pro-Tyr-NH2 (H-GA[Sar][Hyp]PY-NH2; SMILES C[C@H](NC(=O)CN)C(=O)N(C)CC(=O)N1C[C@H](O)C[C@H]1C(=O)N1CCC[C@H]1C(=O)N[C@@H](Cc1ccc(O)cc1)C(N)=O) [Compound 30]
- In vivo activity [1]: ++ (30-50% increase in time until arrhythmia)

Compound: H-Gly-Asn-Tyr-NH2 [Compound 41]
- In vivo activity [1]: ++ (30-50% increase in time until arrhythmia)

Compound: H-Hyp-Pro-Tyr-Asn-Gly-Ala-Gly-NH2 (H-[Hyp]PYNGAG-NH2; SMILES C[C@H](NC(=O)CNC(=O)[C@H](CC(N)=O)NC(=O)[C@H](Cc1ccc(O)cc1)NC(=O)[C@@H]1CCCN1C(=O)[C@@H]1C[C@@H](O)CN1)C(=O)NCC(N)=O) [Compound 28]
- In vivo activity [1]: (+) (≦15% increase in time until arrythmia)

Compound: H-[Sar]A[Sar][Hyp]PY-NH2 [Compound 29]
- In vivo activity [1]: + (15-29% increase in time until arrhythmia)

Compound: cyclo(-Gly-Ala-Gly-Hyp-Pro-Tyr-Asn-) (cyclo(GAG[Hyp]PYN)) [Compound 36]
- In vivo activity [1]: +++ (>60% increase in time until arrhythmia)

Compound: cyclo(-Gly-Ala-Gly-Hyp-Pro-Tyr-Gln-) (cyclo(GAG[Hyp]PYQ); SMILES C[C@@H]1NC(=O)CNC(=O)[C@H](CCC(N)=O)NC(=O)[C@H](Cc2ccc(O)cc2)NC(=O)[C@@H]2CCCN2C(=O)[C@@H]2C[C@@H](O)CN2C(=O)CNC1=O) [Compound 35]
- In vivo activity [1]: ++ (30-50% increase in time until arrhythmia)
